From US7879865B2, “Treatment of cancer of the brain using histone deacetylase inhibitors” (Sloan-Kettering Institute for Cancer Research, priority 2001, dated 2011)

What was measured:
[1] = tested on: histone deacetylase (HDAC); test: Acetylated histone levels in mouse tissues after IP injection (Western blot of isolated histones); assay type: in vivo; settings: mice, three injections at 1 hour intervals, SAHA 100 mg/kg, pyroxamide 200 mg/kg
Experimental: FIG. […]
Each mouse was administered three injections at the indicated dose at 1 hour intervals. After the final IP injection tissues (brain, spleen or liver) were isolated at the times indicated. Histones were isolated from tissues essentially as described by Yoshida et al., (1990) J. Biol. Chem. 265:17174-17179. Equal amounts of histones (1 μg) were electrophoresed on 15% SDS-polyacrylamide gels and transferred to Hybond-P filters (Amersham). Filters were blocked with 3% milk and probed with a rabbit purified polyclonal anti-acetylated histone H4 antibody (αAc-H4) and anti-acetylated histone H3 antibody (αAc-H3) (Upstate Biotechnology, Inc.). Levels of acetylated histone were visualized using a horseradish peroxidase-conjugated goat anti-rabbit antibody (1:5000) and the SuperSignal chemiluminescent substrate (Pierce). As a loading control for the histone proteins, parallel gels were run and stained with Coomassie Blue (CB).

[2] = tested on: transformed cells in culture; settings: cited from earlier work
[3] = tested on: tumor growth; settings: cited from earlier work
[4] = tested on: histone deacetylase enzyme; settings: cited from earlier work

Row | Compound | crossing of the blood brain barrier [1] | inhibition of HDAC activity / accumulation of acetylated histones in the brain ([1]; brain histones, anti-AcH3/AcH4 Western blot) | cell cycle arrest, differentiation and/or apoptosis [2] | toxicity to the animal ([3]; animals in tumor growth studies) | accumulation of acetylated histones in the tumor ([3]; tumor) | binding to histone deacetylase enzyme [4]
1 | O=C(CCCCCCC(=O)Nc1cccnc1)NO [pyroxamide] | can cross the blood brain barrier | significantly inhibit HDAC activity causing the accumulation of acetylated histones in the brain | – | – | – | –
2 | O=C(CCCCCCC(=O)Nc1ccccc1)NO [SAHA, suberoylanilide hydroxamic acid] | can cross the blood brain barrier | – | induces cell cycle arrest, differentiation and/or apoptosis of transformed cells in culture | no toxicity to the animal | associated with an accumulation of acetylated histones in the tumor | bind directly in the catalytic pocket of the histone deacetylase enzyme
